Measurements taken from patent publication US20230183292A1, “IMMUNOMODULATORS” (priority 2020, published 2023).
Starred links: 1 amine or outer side, 2 acyl side, 3 side chain; linkers in the order of their positions; H or OH if unused. Positions of bridges follow the written chain, without caps; N, C: chain ends. Non-standard residues stand in square brackets, D forms with d. Residues, ends and D or L forms follow the SMILES beside them. *: point of attachment. X15 = C[C@H](CCC(=O)NCCCCNc1c(*)c(=O)c1=O)[C@H]1CC[C@H]2[C@@H]3[C@H](O)C[C@@H]4C[C@H](O)CC[C@]4(C)[C@H]3C[C@H](O)[C@]12C; X3 = C[C@H](CCC(=O)O)[C@H]1CC[C@H]2[C@@H]3C(=O)C[C@@H]4CC(NC[C@H](N[*:1])C(=O)[*:2])CC[C@]4(C)[C@H]3CC(=O)[C@]12C; X26 = C[C@H](CCC(=O)O)[C@H]1CC[C@H]2[C@@H]3C(=O)C[C@@H]4CC(NCC[C@H](N[*:1])C(=O)[*:2])CC[C@]4(C)[C@H]3CC[C@]12C; X25 = C[C@H](CCC(=O)O)[C@H]1CC[C@H]2[C@@H]3C(=O)C[C@@H]4CC(NC[C@H](N[*:1])C(=O)[*:2])CC[C@]4(C)[C@H]3CC[C@]12C; X5 = CC(C)CCC[C@@H](C)[C@H]1CC[C@H]2[C@@H]3CC[C@H]4C[C@@H](NC[C@H](N[*:1])C(=O)[*:2])CC[C@]4(C)[C@H]3CC[C@]12C; X17 = C[C@H](CCC(=O)O)[C@H]1CC[C@H]2[C@@H]3CC[C@@H]4CC(NC[C@H](N[*:1])C(=O)[*:2])CC[C@]4(C)[C@H]3CC[C@]12C; Trp(1-CH2COOH) = N[C@@H](Cc1cn(CC(=O)O)c2ccccc12)C(=O)O; Hyp = O=C(O)[C@@H]1C[C@@H](O)CN1; NMeNle = CCCC[C@H](NC)C(=O)O; NMeA = CN[C@@H](C)C(=O)O; Dab = NCC[C@H](N)C(=O)O; Dap = NC[C@H](N)C(=O)O

The molecules below were run against T1, PD-1/PD-L1 (Homo sapiens, UniProt Q9NZQ7) (assay: PD-1/PD-L1 Homogenous Time-Resolved Fluorescence (HTRF) binding assay). Conditions: PD-L1-His 10 nM, PD-1-Ig 20 nM; read-out: HTRF IC50.
T1 construct: TVMV protease site (C); made in house; host or cells: HEK293T cells
Outline: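 Inhibitors pre-incubated 15 min with PD-L1-His (10 nM final) in dPBS, 0.1% BSA, 0.05% Tween-20, then 15 min with PD-1-Ig (20 nM final). Eu-cryptate anti-Ig (1 nM) and APC anti-His (20 nM) added, 30 min equilibration; HTRF 665/620 nm ratio. Human ECD proteins from HEK293T.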

T1 sequence (Q9NZQ7 18-239): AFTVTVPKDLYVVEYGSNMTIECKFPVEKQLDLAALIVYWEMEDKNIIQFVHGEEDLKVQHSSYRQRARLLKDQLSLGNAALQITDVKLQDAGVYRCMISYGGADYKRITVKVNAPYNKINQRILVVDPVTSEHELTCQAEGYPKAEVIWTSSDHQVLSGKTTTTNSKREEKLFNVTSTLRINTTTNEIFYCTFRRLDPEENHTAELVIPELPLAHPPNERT

SMILES	IC50
CCCC[C@H]1C(=O)N(C)[C@@H](CCCC)C(=O)N[C@@H](CC(C)C)C(=O)N[C@H](C(=O)NCC(N)=O)CSCC(=O)N[C@@H](Cc2ccc(O)cc2)C(=O)N(C)[C@@H](C)C(=O)N[C@@H](CC(N)=O)C(=O)N2CCC[C@H]2C(=O)N[C@@H](CNC2CC[C@@]3(C)[C@H](CC(=O)[C@@H]4[C@@H]3CC(=O)[C@]3(C)[C@@H]([C@H](C)CCC(=O)O)CC[C@@H]43)C2)C(=O)N[C@@H](CC(C)C)C(=O)N2C[C@H](O)C[C@H]2C(=O)N[C@@H](Cc2c[nH]c3ccccc23)C(=O)N[C@@H](CCN)C(=O)N[C@@H](Cc2cn(CC(=O)O)c3ccccc23)C(=O)N1C (some centres unmarked) [Example 3005] ({CH2CO}-Y[NMeA]NP[X3]L[Hyp]W[Dab][Trp(1-CH2COOH)][NMeNle][NMeNle]LCG-NH2; thioether N-14)	13 nM
CCCC[C@H]1C(=O)N(C)[C@@H](CCCC)C(=O)N[C@@H](CC(C)C)C(=O)N[C@H](C(=O)NCC(N)=O)CSCC(=O)N[C@@H](Cc2ccc(O)cc2)C(=O)N(C)[C@@H](C)C(=O)N[C@@H](CC(N)=O)C(=O)N2CCC[C@H]2C(=O)N[C@@H](CNC2CC[C@@]3(C)[C@H](CC(=O)[C@@H]4[C@@H]3CC[C@]3(C)[C@@H]([C@H](C)CCC(=O)O)CC[C@@H]43)C2)C(=O)N[C@@H](CC(C)C)C(=O)N2C[C@H](O)C[C@H]2C(=O)N[C@@H](Cc2c[nH]c3ccccc23)C(=O)N[C@@H](CCNC2CC[C@@]3(C)[C@H](CC(=O)[C@@H]4[C@@H]3CC[C@]3(C)[C@@H]([C@H](C)CCC(=O)O)CC[C@@H]43)C2)C(=O)N[C@@H](Cc2cn(CC(=O)O)c3ccccc23)C(=O)N1C (some centres unmarked) [Example 3006] ({CH2CO}-Y[NMeA]NP[X25]L[Hyp]W[X26][Trp(1-CH2COOH)][NMeNle][NMeNle]LCG-NH2; thioether N-14)	11 nM
CCCC[C@H]1C(=O)N(C)[C@@H](CCCC)C(=O)N[C@@H](CC(C)C)C(=O)N[C@H](C(=O)NCC(N)=O)CSCC(=O)N[C@@H](Cc2ccc(O)cc2)C(=O)N(C)[C@@H](C)C(=O)N[C@@H](CC(N)=O)C(=O)N2CCC[C@H]2C(=O)N[C@@H](CNC2CC[C@@]3(C)[C@H](CC[C@@H]4[C@@H]3CC[C@]3(C)[C@@H]([C@H](C)CCC(=O)O)CC[C@@H]43)C2)C(=O)N[C@@H](CC(C)C)C(=O)N2C[C@H](O)C[C@H]2C(=O)N[C@@H](Cc2c[nH]c3ccccc23)C(=O)N[C@@H](CCN)C(=O)N[C@@H](Cc2cn(CC(=O)O)c3ccccc23)C(=O)N1C (some centres unmarked) [Example 3007] ({CH2CO}-Y[NMeA]NP[X17]L[Hyp]W[Dab][Trp(1-CH2COOH)][NMeNle][NMeNle]LCG-NH2; thioether N-14)	12 nM
CCCC[C@H]1C(=O)N(C)[C@@H](CCCC)C(=O)N[C@@H](CC(C)C)C(=O)N[C@H](C(=O)NCC(N)=O)CSCC(=O)N[C@@H](Cc2ccc(O)cc2)C(=O)N(C)[C@@H](C)C(=O)N[C@@H](CC(N)=O)C(=O)N2CCC[C@H]2C(=O)N[C@@H](CN[C@H]2CC[C@@]3(C)[C@@H](CC[C@@H]4[C@@H]3CC[C@]3(C)[C@@H]([C@H](C)CCCC(C)C)CC[C@@H]43)C2)C(=O)N[C@@H](CC(C)C)C(=O)N2C[C@H](O)C[C@H]2C(=O)N[C@@H](Cc2c[nH]c3ccccc23)C(=O)N[C@@H](CCN)C(=O)N[C@@H](Cc2cn(CC(=O)O)c3ccccc23)C(=O)N1C [Example 3008] ({CH2CO}-Y[NMeA]NP[X5]L[Hyp]W[Dab][Trp(1-CH2COOH)][NMeNle][NMeNle]LCG-NH2; thioether N-14)	91 nM
CCCC[C@H]1C(=O)N(C)[C@@H](CCCC)C(=O)N[C@@H](CC(C)C)C(=O)N[C@H](C(=O)NCC(N)=O)CSCC(=O)N[C@@H](Cc2ccc(O)cc2)C(=O)N(C)[C@@H](C)C(=O)N[C@@H](CC(N)=O)C(=O)N2CCC[C@H]2C(=O)N[C@@H](CNc2c(NCCCCNC(=O)CC[C@@H](C)[C@H]3CC[C@H]4[C@@H]5[C@H](O)C[C@@H]6C[C@H](O)CC[C@]6(C)[C@H]5C[C@H](O)[C@]34C)c(=O)c2=O)C(=O)N[C@@H](CC(C)C)C(=O)N2C[C@H](O)C[C@H]2C(=O)N[C@@H](Cc2c[nH]c3ccccc23)C(=O)N[C@@H](CCNc2c(NCCCCNC(=O)CC[C@@H](C)[C@H]3CC[C@H]4[C@@H]5[C@H](O)C[C@@H]6C[C@H](O)CC[C@]6(C)[C@H]5C[C@H](O)[C@]34C)c(=O)c2=O)C(=O)N[C@@H](Cc2cn(CC(=O)O)c3ccccc23)C(=O)N1C [Example 5001] ({CH2CO}-Y[NMeA]NP[Dap](X15)L[Hyp]W[Dab](X15)[Trp(1-CH2COOH)][NMeNle][NMeNle]LCG-NH2; thioether N-14; N-terminus assumed)	0.7 nM
